Source: publication PMC6397219, “Rapid one-step ^18F-radiolabeling of biomolecules in aqueous media by organophosphine fluoride acceptors” (Nature Communications, 2019)
Where two headings read alike, the source gives them in different places.

Experiments:
[1] = system: U87MG gliomablastoma; assay type: in vivo, mouse; conditions: 60 min dynamic images; n = 3
Method: (§1) 37 °C in a humidified atmosphere containing 5% CO 2 in Dulbecco’s Modified Eagle Medium (DMEM, high glucose) supplemented with 10% fetal bovine serum. Each male BALB/ c nude mouse wa s injected subcutane ously in the right foreleg with about 2 × 10^6 U87MG cells. At 4-5 week after inoculation, when the tumors reached about 0.5 cm in diameter, the mice were used for PET/CT imaging studies.
(§2) MicroPET/CT imaging with 18F-DBP OF-c(RGDyk)
(§3) Glioblastoma tumor mice were employed in microPET/CT imaging (n = 3) with 18F-DBPOF-c(RGDyk). Anesthetization was con ducted with 2.5% isoflurane during preparation and 1.5% during scans. 10 min dynamic microPET-CT scans were acquired by an Inveon microPET/CT (Siemens, Germany) 20 min post i.v. injection of 18F-DBPOF-c(RGDyk) (100 µL, 100 µCi). Reconstruction of PET images was performed with 3D OPMAP algorithm.
In order to study the specific tumor uptake, mice were pre-blocked by injection of 10 µmol DBPOF-c(RGDyk) 30 min prior to injection of 18F-DBPOF-c(RGDyk) as the control group. Then 60 min dynamic images were acquired to provide a control group […]
while the average tumor uptake SUV in the blocked mice was only 0.32~1.12. The tumor uptake of unblocked mice is 1. 39~2. 51 times higher than blocked mice . The tumor was clearly observable whereas blocked mice had much less tumor uptake as indicated in Supplementary Figure 13. […]

[2] = Log D of 18F-DBPOF-c(RGDyk), 1-octanol/PBS; assay type: physicochemical; conditions: shake-flask, pre-saturated 1-octanol/PBS pH 7.4; 2.0 mL each; four tubes; shaken 10 min, centrifuged 5 min; γ counter, decay-corrected
Method: = 7.4) system to estimate the hydrophobicity changes between c(RGDyk) and 18F-DBP OF-c(RGDyk) that may influence biological function of c(RGDyk).
1-Octanol (2.0 mL) and phosphate buffer (2.0 mL) were pipetted into four 12 mL test tubes containing […] of radiotracer. The test tubes were stoppered, mechanic ally shaken for 10 min, and centrifuged (5 min). From each tube, approximately 0.5 mL of buffer was transferred into a pre -weighed test tube for counting. The remaining buffer was discarded and approximately 0.5 mL of octanol phase was also transferred int o a separate pre-weighed test tube. The amount of radioactivity in each tube was measured by a γ counter and corrected for decay. Accurate volumes of each counted phase were determined by weight differences and known densities. The partition coefficient was calculated using Supplementary Equation 1:
Log D = Counts/m L in buffer = -0.59 ± 0.09 1 […]
Photosensitizers were added at concentrations 0, 0.01, 0.05, 0.1, 0.5, 1 and 5 mM. The cell cytotoxic effect on the U87MG cells were determined using the CCK8 assay.
After 12 h and 24 h of incubation after the treatment we added 10 µL of CCK8 and incubated the cells for another 1 h at 37 °C and in 5% CO2. The measurement of absorbance was carried out on a 96-well microplate reader Synergy HT at 450 nm. […]

[3] = system: U87MG gliomablastoma; assay type: in vivo, mouse; conditions: for Tumor-SUVbw: unblocked, mean n=3
Method: as §1, §2
as §3, with “algorithm. […]” for “algorithm.”
39~2. 51 times higher than blocked mice . The tumor was clearly observable whereas blocked mice had much less tumor uptake as indicated in Supplementary Figure 13. […]

**Q.** With “^18F-DBPOF-c(RGDyk) (head to tail) [18F-labeled peptide ligand, targets the integrin αvβ3 receptor of the U87MG cell]” as the substance, how does the “average tumor uptake SUV in the blocked mice” value [1] read?
**A.** 0.32~1.12

**Q.** And the “Log D” value [2]?
**A.** -0.59 ± 0.09

**Q.** What about the Tumor-SUVbw ([3]; 21 min) of the same substance?
**A.** 0.5941

**Q.** And the Tumor-SUVbw ([3]; 22 min)?
**A.** 0.4485

**Q.** And the Tumor-SUVbw ([3]; 23 min)?
**A.** 0.7452

**Q.** What about the Tumor-SUVbw ([3]; 24 min) of the same substance?
**A.** 0.761

**Q.** What about the Tumor-SUVbw ([3]; 25 min) of the same substance?
**A.** 0.4755

**Q.** And the Tumor-SUVbw ([3]; 26 min)?
**A.** 0.5271

**Q.** And the Tumor-SUVbw ([3]; 27 min)?
**A.** 0.4212

**Q.** And the Tumor-SUVbw ([3]; 28 min)?
**A.** 0.5137

**Q.** What about the Tumor-SUVbw ([3]; 29 min) of the same substance?
**A.** 0.5036

**Q.** And the Tumor-SUVbw ([3]; 30 min)?
**A.** 0.6269

**Q.** And the “uptake, standardized uptake value (SUV) in U87MG gliomablastoma” value ([3]; microPET/CT, 100 µCi i.v., dynamic scan from 20 min post injection)?
**A.** 0.76

**Q.** What about the “target to non-target ratio” value ([3]; microPET/CT, U87MG gliomablastoma) of the same substance?
**A.** 2.4
